Measurements taken from publication PMC8467532, “DYRK1A Kinase Inhibitors Promote β-Cell Survival and Insulin Homeostasis” (Cells, 2021).

Tested on: DYRK1A in MIN6 cell line
Assay: DYRK1A expression by flow cytometry and confocal imaging
Assay type: cell-based, mouse
Procedure: The presence of insulin, glucagon, C-peptide, Ki67, and DYRK1A was assessed in MIN6 and INS-1E pancreatic cell lines. Before imaging, cells were seeded onto slides at a density of 1 × 10^5 cells and maintained at 37 °C in 95% atmospheric air and 5% CO2 in a humidified atmosphere for 24 h. After washing with fresh medium, cells were incubated with 5 µM inhibitor solution for 24 h. After this time, the solution was replaced with a culture medium for another 48 h. The cells were fixed. Then after washing and permeabilization, they were incubated with specific antibodies diluted in PBS. Next, the cells were incubated for 10 min with Hoechst33342 (Sigma-Aldrich). After incubation, at 37 °C, in the dark, the cells were washed twice with HBSS (Gibco), the slide was transferred to a microscope table, and the cells were visualized under a Zeiss LSM 880 confocal microscope (Carl Zeiss, Jena, Germany) with a 63× immersion objective. Images were analyzed by Zeiss ZEN Software.
The presence of insulin, glucagon, C-peptide, Ki67 and DYRK1A was assessed in MIN6 and INS-1E pancreatic cell lines. Before analysis, cells were seeded onto slides at a density of 1 × 10^5 cells and maintained at 37 °C in 95% atmospheric air and 5% CO2 in a humidified atmosphere for 24 h. After washing with fresh medium, cells were incubated with 5 µM inhibitor solution for 24 h. After this time, the solution was replaced with a culture medium for another 48 h. The cells were then detached from the plate using trypsin. The cells were fixed. Then after washing and permeabilization, they were incubated with specific antibodies diluted in PBS. Cells were analyzed with BDAccuri flow cytometer and calculated using FlowJo software (Ashland, Oregon-based FlowJo LLC, a subsidiary of Becton Dickinson).

SMILES: O=c1ccc2cnc3ccc(-c4cn[nH]c4)cc3c2n1-c1ccc(F)cc1C(F)(F)F [AC27, 1-(4-fluoro-2-(trifluoromethyl)phenyl)-9-(1H-pyrazol-4-yl)benzo[h][1, 6]naphthyridin-2-one]
- DYRK1A (fluorescence-positive cells, flow cytometry) (MIN6, 24 h with inhibitor, control 74%): 33%
- DYRK1A signal in confocal imaging (MIN6, vs untreated control): reduced
